Data reported in paper PMC9499467, “Phenanthroindolizidine Alkaloids Isolated from Tylophora ovata as Potent Inhibitors of Inflammation, Spheroid Growth, and Invasion of Triple-Negative Breast Cancer” (International Journal of Molecular Sciences, 2022).
Read-outs that look alike come from different tables or passages of the source.

Experiments:
[1] = tested on: 3D co-culture spheroids of MDA-MB-231 and primary murine CAFs; test: 3D growth studies, spheroid size of co-culture spheroids; format: cell-based, human MDA-MB-231; conditions: 100 nM, 72 h
Method: To emulate the TNBC microenvironment, 3D spheroids composed of MDA-MB-231 and CAFs at a ratio of 1:2 in a collagen-based matrix were generated. The culture medium of both cell lines was mixed (DMEM:RPMI 1640 (1:1) + 12.5% FCS + 1% PS) and supplemented with 0.05 mg/mL collagen type I (Thermo Fisher Scientific; #A1048301). On day 1, 3000 cells were seeded into a low-attachment 96 well plate (Greiner; #650970). Spheroids were grown for 72 h before proceeding with compound treatment on day 4, and analysis on day 7 according to the “Spheroid immunostaining”, “3D cell viability”, or “3D growth” studies presented in the results section.
Co-culture spheroids were generated for 72 h before they were exposed to either DMSO (Roth; #A994.1) alone at maximal 0.1%, 100 nM paclitaxel (Santa Cruz Biotechnology; #sc-201439), or 100 nM of compound (1) for another 72 h. At least three spheroids per treatment group were analyzed. For that purpose, brightfield images of the spheroids were acquired at 100× g magnification using the microscope Axio Vert.A1 (Zeiss). The spheroid surface area was quantified in brightfield images using Fiji (open-source software; version 1.52i) and was further defined as spheroid size. In each individual experiment spheroid size was normalized to the smallest (which was set to 0%) and to the largest spheroids (which was set to 100%).

[2] = tested on: 3D co-culture spheroids of MDA-MB-231 and primary murine CAFs; test: 3D cell viability (ATP content) in TNBC co-culture spheroids; format: cell-based, human MDA-MB-231; conditions: Mus musculus, MDA-MB-231
Method: On day 1, 3000 cells were seeded into a low-attachment 96 well plate (Greiner; #650970). […] Cell viability was determined based on the ATP content in viable cells according to the manufacturer`s instructions (Promega #G9682). Co-culture spheroids were generated for 72 h before they were grown for another 72 h with or without exposure to the compounds. […] Cell viability-dependent luminescence was determined as relative light units (RLU) using the microplate reader Spark® (Tecan).

[3] = tested on: MDA-MB-468-UnaG; test: Cell cycle studies (PI-DNA flow cytometry) in MDA-MB-468-UnaG; format: cell-based; conditions: normoxia
Method: To investigate cell cycle progression in the presence of compound (1s) or paclitaxel (Santa Cruz Biotechnology; #sc-201439), we quantified the DNA content in the cell. On day 1, the cells were seeded in 1 mL into a 24 well plate (Greiner; #662160). On day 2, MDA-MB-468-UnaG were pre-treated either without (normoxia) or with 100 µM CoCl2 (hypoxia) (Sigma-Aldrich; #C8661) for 24 h before compounds were applied. On day 2 for MDA-MB-231 or on day 3 for MDA-MB-468-UnaG, paclitaxel was applied at the concentrations 15 nM, 37 nM, and 100 nM, and compound (1s) was applied at concentrations ranging from 2 nM to 1000 nM. Post-treatment cells were washed in 1× PBS (Thermo Fisher Scientific; #14190); fixed in 70% (v/v) ethanol overnight at 4 °C; washed again in 1× PBS; and, finally, DNA was stained for 15 min at 37 °C in the presence of 10 µg/mL propium iodide (PI; Sigma-Aldrich; #4864) and 100 µg/mL RNase A (Thermo Fisher Scientific; #EN0531) dissolved in 0.1% triton™ X-100 (Sigma-Aldrich; #X100), dissolved in PBS. The fluorescence signal resulting from PI-DNA complex formation was recorded using the flow cytometer CytoFlex (Beckmann Coulter, Krefeld, Germany). The cell cycle phase population was determined based on the DNA content in a set of chromosomes (n) in a cell using the integrated software CytExpert (Beckmann Coulter): sub-G0/G1 (<2n), G0/G1 (2n), S (>2n, <4n), G2/M (4n) or hyperploid cells (>4n) (see Figure S10).

[4] = tested on: NFκB; test: NFκB inhibition assay (24 h), NFκB-dependent firefly luciferase reporter; format: cell-based; conditions: Homo sapiens; NFκB-MDA-MB-231-firefly cells, 24-h treatment, 20 ng/mL TNFα, mean ± SD; read-out: NFκB Inhibition 24 h IC50
Method: On day 1, 3 × 10^4 NFκB MDA-MB-231-firefly cells were seeded into white 96 well plates (Greiner; #655098). On day 2, the medium was replaced with starvation medium and the cells were pre-incubated for 20 min with either 100 µL of DMSO (Roth; #A994.1) alone at maximal 0.1%, or with the final concentration of the diluted compounds (Table 3). To activate NFκB signaling, cells were stimulated with 20 ng/mL TNFα (Peprotech, Hamburg, Germany; #300-01A). Cell lysis was performed in 20 µL 1× cell lysis buffer according to the manufacturer’s instruction for the Luciferase Assay System (Promega #E1500). NFκB-dependent luminescence was determined as relative light units (RLU) using the microplate reader Spark® (Tecan).

[5] = tested on: MDA-MB-468-UnaG; test: 2D cell viability in MDA-MB-468-UnaG under normoxia or CoCl2-simulated hypoxia
[6] = tested on: MDA-MB-231; test: 2D cell viability (PrestoBlue resazurin) in MDA-MB-231; format: cell-based, human; conditions: Homo sapiens
Method: Cell viability was determined based on resazurin-reduction in viable cells according to the PrestoBlue^TM Assay. On day 1, MDA-MB-231 (1.5 × 10^4 cells per well or 7.5 × 10^3 cells per well) were seeded into black 96 well plates (Greiner; #655090) in a total volume of 100 µL. On day 2, the compounds or DMSO (Roth; #A994.1) alone at maximal 0.1% were applied (final concentrations after serial dilution shown in Table 3). An amount of 20 µM staurosporine (Sigma-Aldrich; #S5921) served as a positive control. On day 3, the PrestoBlue^TM reagent (Invitrogen^TM, Darmstadt, Germany; #A13262) was applied according to the manufacturer`s instructions. Finally, cell viability-dependent fluorescence was recorded in relative fluorescence units (RFU) with excitation/emission (Exλ/Emλ) at 535/590 nm or 560/590 nm, using the microplate reader Spark® (Tecan).

[7] = tested on: NFκB; test: NFκB inhibition assay (2 h), NFκB-dependent nanoluc luciferase reporter; format: cell-based, human; conditions: Homo sapiens; NFκB-MDA-MB-231-nanoluc cells, 2-h treatment, mean ± SD; read-out: NFκB Inhibition 2 h IC50
Method: Experiments were performed according to the published protocol. On day 1, 4 × 10^4 NFκB-MDA-MB-231-nanoluc cells were seeded into white 96 well plates (Greiner; #655098). On day 2, the medium was replaced with starvation medium and the cells were pre-incubated for 20 min with either 100 µL of DMSO (Roth; #A994.1) alone at a concentration of maximal 0.1% or with the final concentration of the diluted compounds (Table 3). To activate NFκB signaling, cells were stimulated with 1 µg/mL LPS (Sigma-Aldrich; #L2630) beforehand. NFκB-dependent luciferase activity was measured according to the manufacturer`s protocol for the Nano-Glo Luciferase Assay System (Promega, Mannheim, Germany; #N1110). NFκB-dependent luminescence was determined as relative light units (RLU) using the microplate reader Spark® (Tecan, Männedorf, Switzerland).

CC(=O)O[C@H]1C(=O)[C@@]2(C)[C@H]([C@H](OC(=O)c3ccccc3)[C@]3(O)C[C@H](OC(=O)[C@H](O)[C@@H](NC(=O)c4ccccc4)c4ccccc4)C(C)=C1C3(C)C)[C@]1(OC(C)=O)CO[C@@H]1C[C@@H]2O [Paclitaxel, paclitaxel, reference compound]
reduction of spheroid growth compared to untreated spheroids [1]: 25% | IC50 ([2]; 3D co-culture spheroids, 72 h treatment, mean ± SD (n = 3), read-out: Reduction of Cell Viability 72 h IC50): 43 ± 14.3 nM | IC50 ([2]; co-culture spheroids, 72 h, one individual experiment (Figure S3b), read-out: IC50 of representative dose-response, 3D cell viability): 42.8 nM | sub-G0/G1 population ([3]; 48 h): increase in the sub-G0/G1 population | cell cycle phase population ([3]; (1s) 20 nM 72 h, paclitaxel within 24 h): significantly induces a G2/M arrest | IC50 [4]: > 1000 nM | IC50 ([5]; 24 h, read-out: cell viability IC50, hypoxia): > 1000 nM | decrease of cytotoxic effects by hypoxia (factor) ([5]; hypoxia vs normoxia, MDA-MB-468-UnaG): ≥ 100 | IC50 ([5]; read-out: cell viability IC50, normoxia): 7.7 nM | IC50 ([6]; MDA-MB-231 2D monolayer, 24 h post-treatment, mean ± SD, read-out: Reduction of Cell Viability 24 h IC50): 37.4 ± 8.6 nM | IC50 ([6]; MDA-MB-231, 24 h, one individual experiment (Figure S3a), read-out: IC50 of representative dose-response, 2D cell viability): 36.9 nM | IC50 [7]: > 1000 nM
